Key:
[1] = test system: thrombi formation within venous valves 50A-50C; assay: Vein-on-a-chip: anticoagulant-treated blood perfused through TNF-α treated, HUVEC-lined venous valves; platelets and fibrin imaged; type: cell-based, human; conditions: for thrombi at cusps 52 and at the microfluidic channel 44B: DOAC dosage increased to 500 ng/ml; for thrombi at cusps 52 and at the microfluidic channel 44B / fibrin rich clots in cusps 52 / thrombi in the luminal portion of the microfluidic model 40: venous valve 50B treated with TNF-α
Method: In this embodiment, to form microfluidic chip 40, microelectronic and semiconductor fabrication techniques were used to develop an SU-8 photoresist-based master mold. Particularly, computational fluid dynamics simulations were carried out to arrive at the open venous valve designs (e.g., venous valves 50A-50C) which contained recirculations as observed in venous valve cusps in vivo. The embodiments of the finalized venous valve designs shown in FIGS. 3-5 were developed using solid modeling computer-aided design (CAD) software (e.g., the SolidWorks™ software package published by Dassault Systemes) and a photomask of the finalized valve designs was used to fabricate the master mold using epoxy-based negative photoresist—SU-8 on a silicon wafer in this embodiment. In this embodiment for forming microchannels 44A-44C, once the master molds were fabricated, the wafers were treated with Silane, and Polydimethylsiloxane (PDMS) having an […] to crosslinker ratio of about 10:1 was poured into the master mold. In this embodiment, once the PDMS was set, the PDMS was striped and bonded to a PDMS coated glass slide to form microchannels 44A-44C, each microchannel 44A-44C having PDMS coated on each side thereof. Additionally, PDMS, being hydrophobic, was treated with plasma and then silanized with (3-aminopropyl) triethoxylsilane (APTES) to make the PDMS hydrophilic. In this embodiment, microchannels 44A-44C were then filled with type-I rat tail collagen of about 200 micrograms per milliliter (ug/ml) and fibronectin of about 50 ug/ml to form an extracellular matrix (ECM) configured to support endothelial cell growth on the walls of each microchannel 44A-44C.
(§1) In this embodiment for forming microchannels 44A-44C, human umbilical vein endothelial cells (HUVECs) were cultured over a layer of the ECM coated on microchannels 44A-44C; however, in other embodiments, human or animal cell lines other than HUVECs may also be used in the formation of microchannels 44A-44C. In this embodiment, HUVECs, a human primary cell line derived from the human umbilical vein, were acquired and seeded on T75 flasks coated with type I rat tail collagen of about 5 micrograms (μg) per 5 cm^2, the HUVECs being seeded at about 50,000 cells per flask. In this embodiment, the endothelial growth media (EGM) (EGM-2 MV, promocell in this embodiment) disposed in the flasks were replaced every two days, and once the flasks were 80% confluent, the HUVECs were detached from the flasks and seeded on microchannels 44A-44C with about 20-30 microliters (μl) of cell suspension having cell density of about 1e7 cells per milliliter (ml). The cell suspension was passed through a cell strainer to remove debris and cell aggregates that were larger than about 40 μm in diameter. In this embodiment, microchannels 44A-44C were then first filled with cell suspension and kept upside down for about 20 minutes to seed the top face of microchannels 44A-44C, and then microchannels 44A-44C were again filled with cell suspension and kept upright for 20 minutes to seed the bottom faces of microchannels 44A-44C.
To induce activation, the vascular lumen coated to microchannels 44A-44C was treated with the tumor necrosis factor (TNF) TNF-α at about 0-200 nanograms per milliliter (ng/ml) in this embodiment. Particularly, the seeded microchannels 44A-44C were perfused with media at about 1 ul/min for about 24 hours. Confluent lumen was formed on the walls of microchannels 44A-44C at the end of 24 hours. Additionally, in this embodiment, different doses TNF-α, a cytokine, was introduced into the confluent lumen of the channels for about 18 hours to observe the dose dependent inflammation of the endothelial cells in the straight sections of microchannels 44A-44C and venous valve cusps of venous valves 50A-50C.
In this embodiment of the formation of microchannels 44A-44C, to evaluate role of hypoxia, microfluidic chip 40 was incubated at 3.9% oxygen. […]

[2] = test system: human umbilical vein endothelial cells (HUVECs); assay: Vein-on-a-chip: TNF-α stimulation of HUVEC lumen followed by blood perfusion at venous shear; type: cell-based
Method: as §1, with “The cell suspension was passed through a cell strainer to remove debris and cell aggregates that were larger than about 40 μm in diameter. In this embodiment, microchannels 44A-44C were then first filled with cell suspension and kept upside down for about 20 minutes to seed the top face of microchannels 44A-44C, and then microchannels 44A-44C were again filled with cell suspension and kept upright for 20 minutes to seed the bottom faces of microchannels 44A-44C.” left out
In this embodiment of the formation of microchannels 44A-44C, to evaluate role of hypoxia, microfluidic chip 40 was incubated at 3.9% oxygen. […] Fluorescently labelled platelets and fibrin were visualized and quantitated via microscopes positioned adjacent microchannels 44A-44C. Additionally, in this embodiment, typical vascular identity and adhesion markers were measured through immunohistochemistry. […]

[3] = standard dosage 100 ng/ml of Rivaroxaban in blood
[4] = standard dosage 50 ng/ml of Apixaban in blood

O=C(NC[C@H]1CN(c2ccc(N3CCOCC3=O)cc2)C(=O)O1)c1ccc(Cl)s1 [Rivaroxaban]
thrombi at cusps 52 and at the microfluidic channel 44B [1]: thrombi detected | fibrin rich clots in cusps 52 [1, 3]: fibrin rich clots were present | thrombi in the luminal portion of the microfluidic model 40 [1, 3]: unobservable thrombi

TNF-α
thrombi in venous valves upon stimulation of HUVECs ([2]; blood perfused at venous shear of about 0.5 dynes/cm^2, no thrombi with untreated HUVECs): thrombi were detected | clot formation in lumen treated with varying doses of cytokine ([2]; blood perfused at venous shear rates): fibrin rich clots were predominantly formed in the venous valve cusps

Heparin
thrombi formation within venous valves 50A-50C ([1]; addition of heparin in blood, dose dependent): decreased the thrombi formation | fibrin in cusps 52 ([1]; higher Heparin dosage 0.50 IU/ml, TNF-α 5 ng/ml): only reduced at the higher Heparin dosage | fibrin within microfluidic model 40 ([1]; lower dose of Heparin (approximately 0.25 IU/ml), TNF-α 5 ng/ml): reduction in fibrin resulted | thrombi formed in microfluidic channels 44A-44C ([1]; when the dosage of Heparin was increased (0.25 to 0.50 IU/ml), valve 50B treated with TNF-α 5 ng/ml, FIG. 38): reduced significantly

COc1ccc(-n2nc(C(N)=O)c3c2C(=O)N(c2ccc(N4CCCCC4=O)cc2)CC3)cc1 [Apixaban]
thrombi at cusps 52 and at the microfluidic channel 44B [1]: thrombi detected | fibrin rich clots in cusps 52 [1, 4]: fibrin rich clots were present | thrombi in the luminal portion of the microfluidic model 40 [1, 4]: unobservable thrombi

Source: patent publication US12387622B2, “Systems and methods for modeling veins and associated blood vessel components” (The Texas A&M University System, priority 2019, dated 2025)
